Experimental data from patent publication US20150064221A1, “COMPOUNDS HAVING IMMUNOMUDULATOR ACTIVITY” (priority 2012, published 2015).
Entries after “also recorded” stand apart in the source; their conditions may differ.

Experiments:
[1] = molecular target: COX-1 (Homo sapiens, UniProt P23219); assay: COX-1 activity; type: biochemical
Method: The highest plasma concentrations generally occurred in 1-2 hours. […] The highest level of inhibition was ˜35% for 2C19 at a 30 μM concentration. […] Lastly, VGX-1027 is stable in human liver S9 fractions (with phase 1 and 2 cofactors) with t1/2>90 minutes, which indicates a low likelihood of metabolism in the liver.

[2] = system: 30 primary molecular targets; assay: Radioligand binding assay (MDS Pharma HitProfiling Screen); details: 30 targets, concentrations up to 10 μM; significant = ≧50% inhibition or stimulation
Method: VGX-1027 was negative in a radioligand binding assay (MDS Pharma HitProfiling Screen) that tested 30 primary molecular targets at concentrations up to 10 μM. No significant response (≧50% inhibition or stimulation for Biochemical assays) were noted.

[3] = system: NF-kB; assay: NF-kB activation in human macrophages; type: cell-based; details: LPS induced, monocyte-derived human macrophages
[4] = system: Thioglycollate-elicited macrophages; assay: TNF-α production of macrophages treated with TLR agonists; type: cell-based; details: 10 μg/ml, 48 hours
Method: (A) Thioglycollate-elicited macrophages (1×10^6/ml) were stimulated with either LPS (5 μg/ml), zymosan (ZYM, 50 μg/ml), MDP (25 μg/ml), or Poly(I:C) (50 μg/ml) in the presence or absence of VGX-1027 (10 μg/ml). TNF-α was measured 48 hours post treatment. (B) Relative phosphorylations of 1-κBα and p38 were measured at the indicated time points following stimulation with LPS (5 μg/ml). The y-axis is presented as fold change in comparison to the values obtained from LPS-treated cultures alone. * p<0.05.
Thioglycollate-elicited macrophages were treated with multiple TLR agonists for 48 hours. TNF-α production was measured. The following agonists were used to activate the various TLRs.

[5] = system: various asynchronously growing cell lines (HeLa, Jurkat, RD, PBMCs, U937); assay: Cell viability (MTT assay, P1/Annexin V staining); type: cell-based; design: viability: dose or concentration left out as unconfirmed
Method: (A) Cell viability was measured via the MTT assay after 48 hours of treatment. (B) TNF-α levels were measured 48 hours post LPS (5 μg/ml) stimulation. (C) CD4 T cells were stimulated with either ConA (10 μg/ml) or anti-CD3/CD28 beads (10 μg/ml), and proliferation was measured via 3H-thymidine incorporation.
VGX-1027 was tested for whether its effects were cell-type-specific.

[6] = system: CAR-induced pleurisy; assay: Carrageenan (CAR)-induced pleurisy; type: in vivo, mice; details: i.p. or oral
Method: VGX-1027 was administered via the intraperitoneum or orally, and the production of exudates volume (A), PCN infiltration (B), and MPO activity (C) in the lungs was determined. Data are means±SD from 2 independent experiments.
Next, carrageenan (CAR)-induced pleurisy, a well-known model of acute inflammation mediated by leukocytes where type-1 proinflammatory cytokines such as IL-1 and TNF-α play a major pathogenic role, was evaluated. Mice that are challenged with CAR develop acute pleurisy with turbid exudates. The amount of inflammation was measured by the volume of exudates, the number of granulocytes (PCN), and the amount of Myeloperoxidase (MPO), activity in the lungs. Anti-TNF antibodies were used as a control to compare the effects of VGX-1027 with those of TNF-α blockade, which is commonly used to treat inflammatory disorders in humans.

[7] = system: Normal human PBMCs; assay: Ex vivo immune effects in PBMCs with plasma of dosed subjects; type: cell-based; details: LPS 5 μg/ml + plasma of 5th day after dosing
Method: Normal human PBMCs were isolated and cultured in the presence of LPS (5 μg/ml) with or without VGX-1027 treated plasma. Plasma samples were obtained by blood collection before and on the 5th day after VGX-1027 dosing in steady state. Cell free supernateants were analyzed for production of TNF-α and IL-1β 24 hours post treatment. Cytokine levels (pg/ml) were assayed by ELISA. Representative results were correlated with pro-inflammatory cytokine inhibition.

[8] = system: STAT3; assay: IL-6 induced STAT3 phosphorylation in CD4+ T cells (Western blot); type: cell-based; details: IL-6 20 ng/ml, 10 uM
Method: FIG. 17. Western blot (A) and relative densitometric analysis (B) of the levels of phospho-STAT3 in CD4+ T cells after stimulation with IL-6.
In vitro T-cell treatment: Naive, sorted CD4+ T cells were obtained from the University of Pennsylvania School of Medicine, Immunology Clinical Core, cultured in vitro with IL-6 (20 ng/ml) in the presence or absence of VGX1027 (10 uM) for 0, 30 min, 1 hr, 2 hrs and 5 hrs. At the end of the incubation period, cells were lysed for 30 min at 4° C. by using the Nonidet P-40 lysis buffer (Invitrogen) supplemented with a phosphatase inhibitor mixture (PhosSTOP) and a protease inhibitor mixture (Complete) as directed by the manufacturer (Roche Applied Science). Lysates were collected and spun at 10,000 rpm for 5 min at 4° C., and then, 50 ug of proteins were mixed with 2× sample buffer (Invitrogen) for subsequent 4-12% SDS-PAGE electrophoresis. Afterward, proteins were transferred to nitrocellulose using the iBlot Dry Blotting System (Invitrogen), immunodetection was performed with the SNAP i.d. Protein Detection System (Millipore) using specific p-STAT3 and STAT3 monoclonal antibodies (Cell Signaling), and the expressed proteins were visualized with HRP-conjugated goat antimouse IgG using an ECL detection system (Amersham Biosciences, Piscataway, N.J.).

[9] = system: SEB-induced lethal shock; design: species or system mice; details: mouse, in vivo
[10] = system: enterobacterial antigen-reactive CD4+CD25− T cells; details: in vitro; Mangano et al. 2008; cited from earlier work

COX-1, sequence (P23219 24-599): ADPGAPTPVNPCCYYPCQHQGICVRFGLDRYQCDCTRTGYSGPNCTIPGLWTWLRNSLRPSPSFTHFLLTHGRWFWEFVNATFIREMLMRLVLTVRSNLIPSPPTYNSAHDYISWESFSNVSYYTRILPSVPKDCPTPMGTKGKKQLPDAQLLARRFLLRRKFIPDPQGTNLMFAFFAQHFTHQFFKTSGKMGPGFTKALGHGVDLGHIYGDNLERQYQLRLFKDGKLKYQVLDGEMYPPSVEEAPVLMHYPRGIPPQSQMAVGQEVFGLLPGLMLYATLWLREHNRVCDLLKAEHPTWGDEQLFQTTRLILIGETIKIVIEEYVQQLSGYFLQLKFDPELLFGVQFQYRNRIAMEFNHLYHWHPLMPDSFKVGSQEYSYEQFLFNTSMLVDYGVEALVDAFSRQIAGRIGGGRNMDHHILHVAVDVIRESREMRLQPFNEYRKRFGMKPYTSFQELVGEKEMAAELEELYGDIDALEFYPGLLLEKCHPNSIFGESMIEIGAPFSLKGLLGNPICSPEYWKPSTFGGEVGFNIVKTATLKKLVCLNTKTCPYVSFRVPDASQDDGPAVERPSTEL

O=C(O)CC1CC(c2ccccc2)=NO1 (centres unmarked) [VGX-1027, 3-phenyl-4,5-dihydro-5-isoxazoleacetic acid]
inhibition of COX-1 activity [1]: no significant inhibition | radioligand binding result [2]: negative | DNA binding of NF-kB [3]: powerfully inhibits in a dose-dependent fashion | TNF-α production ([4]; LPS (5 μg/ml)): inhibited | TNF-α production ([4]; MDP (25 μg/ml)): inhibited | TNF-α production ([4]; ZYM (50 μg/ml)): inhibited | TNF-α production ([4]; poly(I:C) (50 μg/ml)): did not affect | viability ([5]; 48 hours, MTT): Greater than 80% | toxicity to cell lines ([5]; MTT assay and P1/Annexin V staining, up to 100 mM): did not cause toxicity; also recorded: not toxic | Myeloperoxidase (MPO) activity in the lungs [6]: effectively decreased | number of granulocytes (PCN) [6]: effectively decreased | prevention of CAR-induced pleurisy compared with anti-TNF [6]: as effective as anti-TNF treatment | volume of exudates [6]: effectively decreased | IL-1β levels [7]: repressed to levels comparable to the negative controls | TNF-α levels [7]: repressed to levels comparable to the negative controls | magnitude of STAT3 phosphorilation [8]: overall reduction | time of maximum STAT3 activation after IL-6 [8]: 1 h | symptomology associated with SEB challenge [9]: attenuated | survival ([9]; ip): 50% | proliferation of enterobacterial antigen-reactive CD4+CD25− T cells [10]: inhibits
